Laboratory results as given in patent US7989620B2, “Hydantoin derivatives for the treatment of obstructive airway diseases” (AstraZeneca AB, priority 2004, dated 2011).
In brackets after ≈: the same amount, converted by molar mass.

Assays:
[1] = molecular target: T1, Recombinant human MMP 14 catalytic domain (Homo sapiens, UniProt P50281); assay: Isolated enzyme assay MMP14; type: biochemical; conditions: read-out: hMMP14 IC50
T1 construct: Recombinant human MMP 14 catalytic domain; made in house
Method: Recombinant human MMP 14 catalytic domain may be expressed and purified as described by Parkar A. A. et al, (2000), Protein Expression and Purification, 20, 152. The purified enzyme can be used to monitor inhibitors of activity as follows: MMP14 (10 ng/ml final concentration) is incubated for 60 minutes at room temperature with the synthetic substrate Mca-Pro-Cha-Gly-Nva-His-Ala-Dpa-NH2 (10 μM) in assay buffer (0.1M “Tris-HCl” (trade mark) buffer, pH 7.5 containing 0.1M NaCl, 20 mM CaCl2, 0.020 mM ZnCl and 0.05% (w/v) “Brij 35” (trade mark) detergent) in the presence (5 concentrations) or absence of inhibitors. Activity is determined by measuring the fluorescence at λex 320 nm and λem 405 nm. Percent inhibition is calculated as follows: % Inhibition is equal to the [Fluorescenceplus inhibitor−Fluorescencebackground] divided by the [Fluorescenceminus inhibitor−Fluorescencebackground].

[2] = molecular target: T2, Recombinant human MMP 12 catalytic domain (Homo sapiens, UniProt P39900); assay: Isolated enzyme assay MMP12; type: biochemical; conditions: read-out: hMMP12 IC50
T2 construct: Recombinant human MMP 12 catalytic domain; made in house
T2 sequence (P39900 106-263 limits assumed): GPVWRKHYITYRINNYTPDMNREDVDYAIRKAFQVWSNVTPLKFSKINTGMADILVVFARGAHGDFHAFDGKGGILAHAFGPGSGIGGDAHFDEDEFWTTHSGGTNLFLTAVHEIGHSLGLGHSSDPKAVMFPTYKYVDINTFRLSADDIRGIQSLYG
Method: Recombinant human MMP 12 catalytic domain may be expressed and purified as described by Parkar A. A. et al, (2000), Protein Expression and Purification, 20, 152. The purified enzyme can be used to monitor inhibitors of activity as follows: MMP12 (50 ng/ml final concentration) is incubated for 60 minutes at room temperature with the synthetic substrate Mca-Pro-Cha-Gly-Nva-His-Ala-Dpa-NH2 (10 μM) in assay buffer (0.1M “Tris-HCP” (trade mark) buffer, pH 7.3 containing 0.1M NaCl, 20 mM CaCl2, 0.020 mM ZnCl and 0.05% (w/v) “Brij 35” (trade mark) detergent) in the presence (10 concentrations) or absence of inhibitors. Activity is determined by measuring the fluorescence at λex 320 nm and λem 405 nm. Percent inhibition is calculated as follows: % Inhibition is equal to the [Fluorescenceplus inhibitor−Fluorescencebackground] divided by the [Fluorescenceminus inhibitor−Fluorescencebackground]. MMP8

[3] = Determination of solubility in 0.1M phosphate buffer, pH 7.4; conditions: 20 °C, pH 7.4, aqueous buffer, thermodynamic from solid
Method: Protocol for Determination of Solubility
The test compound (1 mg) was weighed into a 2 mL glass vial with a screw cap and 0.1 M phosphate buffer pH 7.4. (1.00 mL) was added. The sample vial was then sonicated for about 10 minutes and then placed on a shake board overnight at 20° C. The contents of the sample vial were then filtered through a Millipore Millex-LH 0.45 μm filter into a new 2 mL glass vial to give a clear solution. The clear solution (40 μL) was transferred to a new 2 mL glass vial and diluted with 0.1 M phosphate buffer, pH 7.4 (960 μL).
A standard calibration curve for each particular test compound was established using solutions of known concentration. These solutions of known concentration were normally chosen to have concentrations of ˜10 μg/mL and ˜50 μg/mL. They were prepared by dissolving a known weight of the compound in 99.5% ethanol (500 μL) and then sonicating for one minute if necessary. If the compound was still not completely dissolved, DMSO (500 μL) was added and the mixture sonicated for an additional one minute. The resulting solution was then diluted to the appropriate volume with a mixture of acetonitrile/100 mM ammonium acetate pH 5.5 20-50/80-50. If necessary, a further, more dilute, standard solution was prepared by dilution.

plasma protein = assay: Plasma protein binding by ultrafiltration; conditions: 10 μM, room temperature
Method: Plasma protein binding was determined by ultrafiltration in an automated 96 well format assay. On each test occasion the plasma protein binding of a reference compound (budesonide) was monitored in parallel.
Test compounds (10 mM dissolved in DMSO) were added to plasma to a final concentration of 10 μM and equilibrated at room temperature for 10 minutes. 350 μL of the plasma was transferred to an ultrafiltration plate, Microcon-96 (10 kDa cutoff, Millipore). The ultrafiltration plate was centrifuged at 3000 G for 70 minutes at room temperature. After centrifugation, the concentration of the compounds in the obtained plasma water (the unbound fraction) was determined by LC-MS/MS using a 3-point calibration curve and compared to the concentration in the original spiked plasma.
The analyses were performed using a gradient chromatographic system with acetic acid/acetonitrile as mobile phases.

[4] = molecular target: T3, Recombinant human MMP9 catalytic domain (Homo sapiens, UniProt P14780); assay: Isolated enzyme assay MMP9; type: biochemical; conditions: read-out: hMMP9 IC50
T3 sequence (P14780 with tags, fused parts or gaps DEL216-390 limits assumed): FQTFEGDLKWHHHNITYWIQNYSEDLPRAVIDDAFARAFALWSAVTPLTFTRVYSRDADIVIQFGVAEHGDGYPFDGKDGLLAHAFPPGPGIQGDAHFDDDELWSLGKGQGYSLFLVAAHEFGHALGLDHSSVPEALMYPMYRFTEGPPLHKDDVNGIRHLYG
Method: Recombinant human MMP9 catalytic domain was expressed and then purified by Zn chelate column chromatography followed by hydroxamate affinity column chromatography. The enzyme can be used to monitor inhibitors of activity as follows: MMP9 (5 ng/ml final concentration) is incubated for 30 minutes at RT with the synthetic substrate Mca-Pro-Cha-Gly-Nva-His-Ala-Dpa-NH2 (5 μM) in assay buffer (0.1 M “Tris-HCl” (trade mark) buffer, pH 7.3 containing 0.1M NaCl, 20 mM CaCl2, 0.020 mM ZnCl and 0.05% (w/v) “Brij 35” (trade mark) detergent) in the presence (10 concentrations) or absence of inhibitors. Activity is determined by measuring the fluorescence at λex 320 nm and λem 405 nm. Percent inhibition is calculated as follows: % Inhibition is equal to the [Fluorescenceplus inhibitor−Fluorescencebackground] divided by the [Fluorescenceminus inhibitor−Fluorescencebackground]. MMP14
A protocol for testing against other matrix metalloproteinases, including MMP9, using expressed and purified pro MMP is described, for instance, by C. Graham Knight et al., (1992) FEBS Lett., 296(3), 263-266.

hMMP8 = molecular target: T4, hMMP8 (Homo sapiens, UniProt P22894); assay: Isolated enzyme assay MMP8; type: biochemical
T4 construct: purchased Calbiochem
T4 sequence (P22894 101-467): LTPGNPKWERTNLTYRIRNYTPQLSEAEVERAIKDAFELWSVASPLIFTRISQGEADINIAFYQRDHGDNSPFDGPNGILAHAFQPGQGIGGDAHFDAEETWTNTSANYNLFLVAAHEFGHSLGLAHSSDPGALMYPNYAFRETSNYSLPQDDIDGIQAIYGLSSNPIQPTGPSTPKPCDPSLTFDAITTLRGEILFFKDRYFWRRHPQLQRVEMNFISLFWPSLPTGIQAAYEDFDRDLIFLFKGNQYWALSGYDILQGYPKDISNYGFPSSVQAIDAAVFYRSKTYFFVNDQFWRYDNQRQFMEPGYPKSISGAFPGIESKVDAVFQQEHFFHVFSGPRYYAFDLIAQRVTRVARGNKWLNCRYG
Method: Purified pro-MMP8 is purchased from Calbiochem. The enzyme (at 10 μg/ml) is activated by p-amino-phenyl-mercuric acetate (APMA) at 1 mM for 2.5 h, 35° C. The activated enzyme can be used to monitor inhibitors of activity as follows: MMP8 (200 ng/ml final concentration) is incubated for 90 minutes at 35° C. (80% H2O) with the synthetic substrate Mca-Pro-Cha-Gly-Nva-His-Ala-Dpa-NH2 (12.5 μM) in assay buffer (0.1M “Tris-HCl” (trade mark) buffer, pH 7.5 containing 0.1M NaCl, 30 mM CaCl2, 0.040 mM ZnCl and 0.05% (w/v) “Brij 35” (trade mark) detergent) in the presence (10 concentrations) or absence of inhibitors. Activity is determined by measuring the fluorescence at λex 320 nm and λem 405 nm. Percent inhibition is calculated as follows: % Inhibition is equal to the [Fluorescenceplus inhibitor−Fluorescencebackground] divided by the [Fluorescenceminus inhibitor−Fluorescencebackground]. MMP9

[5] = molecular target: T5, Recombinant human MMP19 catalytic domain (Homo sapiens, UniProt Q99542); assay: Isolated enzyme assay MMP19; type: biochemical; conditions: read-out: hMMP19 IC50
T5 construct: Recombinant human MMP19 catalytic domain; made in house
T5 sequence (Q99542 98-256 limits assumed): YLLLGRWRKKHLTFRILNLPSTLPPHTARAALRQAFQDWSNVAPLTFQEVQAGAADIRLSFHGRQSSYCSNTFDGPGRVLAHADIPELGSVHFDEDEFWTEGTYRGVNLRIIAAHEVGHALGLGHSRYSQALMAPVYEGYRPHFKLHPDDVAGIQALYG
Method: Recombinant human MMP19 catalytic domain may be expressed and purified as described by Parkar A. A. et al, (2000), Protein Expression and Purification, 20:152. The purified enzyme can be used to monitor inhibitors of activity as follows: MMP19 (40 ng/ml final concentration) is incubated for 120 minutes at 35° C. with the synthetic substrate Mca-Pro-Leu-Ala-Nva-Dpa-Ala-Arg-NH2 (5 μM) in assay buffer (0.1M “Tris-HCl ” (trade mark) buffer, pH 7.3 containing 0.1M NaCl, 20 mM CaCl2, 0.020 mM ZnCl and 0.05% (w/v) “Brij 35” (trade mark) detergent) in the presence (5 concentrations) or absence of inhibitors. Activity is determined by measuring the fluorescence at λex 320 nm and λem 405 nm. Percent inhibition is calculated as follows: % Inhibition is equal to the [Fluorescenceplus inhibitor−Fluorescencebackground] divided by the [Fluorescenceminus inhibitor−Fluorescencebackground].

Compound | IC50 [1] | IC50 [2] | solubility [3] | Protein binding (% free) (plasma protein) | IC50 [4] | IC50 (hMMP8) | IC50 [5] | Solubility pH 7.4
C[C@]1(CS(=O)(=O)N2CC=C(C#Cc3cnc(C4CC4)nc3)CC2)NC(=O)NC1=O [Example 1, (5S)-5-({[4-[(2-Cyclopropylpyrimidin-5-yl)ethynyl]-3,6-dihydropyridin-1(2H) -yl]sulfonyl}methyl)-5-methylimidazolidine-2,4-dione] | > 10000 nM | 6 nM | 396 µM (≈ 165 µg/mL) | 18 % free | 5 nM | 2530 nM |  | 
C[C@]1(CS(=O)(=O)N2CC=C(C#Cc3cnc(C(F)(F)F)nc3)CC2)NC(=O)NC1=O [Example 3] | > 10000 nM | 6 nM |  |  | 5 nM | 547 nM | 7900 nM | 118 μM
CCc1ncc(C#CC2=CCN(S(=O)(=O)C[C@@]3(C)NC(=O)NC3=O)CC2)cn1.O=C(O)C(F)(F)F [Example 5, (5S)-5-({[4-[(2-Ethylpyrimidin-5-yl)ethynyl]-3,6-dihydropyridin-1(2H) -yl]sulfonyl}methyl)-5-methylimidazolidine-2,4-dione trifluoroacetate] | > 10000 nM | 9 nM | 91 µM | 47 % free | 9 nM | 1140 nM |  | 
C[C@]1(CS(=O)(=O)N2CC=C(C#Cc3ccc(Cl)cc3)CC2)NC(=O)NC1=O [(5S)-5-({[4-[(4-chlorophenyl)ethynyl]-3,6-dihydropyridin-1(2H)-yl]sulfonyl}methyl)-5-methylimidazolidine-2,4-dione, reference compound] | 4300 nM | 2 nM | 49 µM (≈ 20 µg/mL) | 1.75 % free | 9 nM | 180 nM | 3980 nM | 
Cc1ccc(C#CC2=CCN(S(=O)(=O)C[C@@]3(C)NC(=O)NC3=O)CC2)cc1 [(5S)-5-methyl-5-({[4-[(4-methylphenyl)ethynyl]-3,6-dihydropyridin-1(2H)-yl]sulfonyl}methyl)imidazolidine-2,4-dione, reference compound] | 4430 nM | 3 nM | 72 µM (≈ 27.9 µg/mL) | 2.25 % free | 34 nM | 384 nM | 1970 nM | 
